Structures can show the parent of a compound that is named as a salt. Where a SMILES comes first, the peptide text is derived from it. [ ]: non-standard residue; d: D form. NEtPhe(4-F) = CCN[C@@H](Cc1ccc(F)cc1)C(=O)O
System: mouse
Assay: mouse hot plate test (analgesic activity)
Assay type: in vivo
Settings: hot plate 52° C., 15 minutes after administration, latency to jump; for Analgesic Activity, Hot Plate Test ED50, mg./kg. subcutaneous: subcutaneous injection
Method: In this test, a mouse is placed inside an upright acrylic cylinder comprising, as its base, a hot plate surface which is maintained at 52° C. The mouse is given, orally or by subcutaneous injection, a predetermined amount of test compound dissolved or suspended in a suitable carrier, and, 15 minutes after administration of the test compound, the mouse is placed on the hot plate surface. The latency in seconds until the mouse jumps from the hot plate surface is measure. […] This must occur in a dose range which produces no motor incoordination or incapacitation. The following Table records the ED50 results obtained from this test.

Q: `CCN(C(=O)CNC(=O)[C@H](NC(=O)[C@@H](N)Cc1ccc(O)cc1)[C@H](C)O)[C@@H](Cc1ccc(F)cc1)C(N)=O` [Example 2, L-Tyrosyl-D-threonyl-glycyl-L-(N^α -ethyl)-p-fluorophenylalanine Amide, Acetate Salt] (H-Y[dT]G[NEtPhe(4-F)]-NH2) was tested. Which “Analgesic Activity, Hot Plate Test ED50, mg./kg. subcutaneous” value did it give?
A: 0.0121 mg/kg

Q: `CCN(C(=O)CNC(=O)[C@@H](C)NC(=O)[C@H](Cc1ccc(O)cc1)NC)[C@@H](Cc1ccc(F)cc1)C(N)=O` [Example 3, L-N^α -Methyl-tyrosyl-D-alanyl-glycyl-L-(N^α -Ethyl)-p-fluorophenylalanine Amide, Acetate Salt] was tested. Which “Analgesic Activity, Hot Plate Test ED50, mg./kg. oral” value did it give?
A: 3.55 mg/kg

Q: And the “Analgesic Activity, Hot Plate Test ED50, mg./kg. subcutaneous” value?
A: 0.0117 mg/kg

Q: Which results are given for `CCN(C(=O)CNC(=O)[C@@H](C)NC(=O)[C@@H](N)Cc1ccc(O)cc1)[C@@H](Cc1ccc(F)cc1)C(N)=O` [Example 1, L-Tyrosyl-D-alanyl-glycyl-L-(N-ethyl)-p-fluorophenylalanine Amide, Acetate Salt]?
A: Analgesic Activity, Hot Plate Test ED50, mg./kg. oral: 19 mg/kg; Analgesic Activity, Hot Plate Test ED50, mg./kg. subcutaneous: 0.00018 mg/kg

Reference: US4265808A, “Pharmacologically active peptides” (Eli Lilly and Company, priority 1979, dated 1981)
